Test results as given in patent publication US11008314B2, “Compounds and methods for modulating interleukin-2-inducible t-cell kinase” (CORVUS PHARMACEUTICALS, INC., priority 2016, dated 2021).

Columns and labels:
Assay type in all cases: biochemical
ITK = ITK (Homo sapiens (Human), UniProt Q08881); experiment: IC50 against ITK
TXK = TXK (Homo sapiens (Human), UniProt P42681); experiment: IC50 against TXK; conditions: for TXK/ITK: ratio of TXK IC50 to ITK IC50
JAK3 = JAK3 (Homo sapiens (Human), UniProt P52333); experiment: IC50 against JAK3
Chain of JAK3 (P52333 whole entry, species assumed): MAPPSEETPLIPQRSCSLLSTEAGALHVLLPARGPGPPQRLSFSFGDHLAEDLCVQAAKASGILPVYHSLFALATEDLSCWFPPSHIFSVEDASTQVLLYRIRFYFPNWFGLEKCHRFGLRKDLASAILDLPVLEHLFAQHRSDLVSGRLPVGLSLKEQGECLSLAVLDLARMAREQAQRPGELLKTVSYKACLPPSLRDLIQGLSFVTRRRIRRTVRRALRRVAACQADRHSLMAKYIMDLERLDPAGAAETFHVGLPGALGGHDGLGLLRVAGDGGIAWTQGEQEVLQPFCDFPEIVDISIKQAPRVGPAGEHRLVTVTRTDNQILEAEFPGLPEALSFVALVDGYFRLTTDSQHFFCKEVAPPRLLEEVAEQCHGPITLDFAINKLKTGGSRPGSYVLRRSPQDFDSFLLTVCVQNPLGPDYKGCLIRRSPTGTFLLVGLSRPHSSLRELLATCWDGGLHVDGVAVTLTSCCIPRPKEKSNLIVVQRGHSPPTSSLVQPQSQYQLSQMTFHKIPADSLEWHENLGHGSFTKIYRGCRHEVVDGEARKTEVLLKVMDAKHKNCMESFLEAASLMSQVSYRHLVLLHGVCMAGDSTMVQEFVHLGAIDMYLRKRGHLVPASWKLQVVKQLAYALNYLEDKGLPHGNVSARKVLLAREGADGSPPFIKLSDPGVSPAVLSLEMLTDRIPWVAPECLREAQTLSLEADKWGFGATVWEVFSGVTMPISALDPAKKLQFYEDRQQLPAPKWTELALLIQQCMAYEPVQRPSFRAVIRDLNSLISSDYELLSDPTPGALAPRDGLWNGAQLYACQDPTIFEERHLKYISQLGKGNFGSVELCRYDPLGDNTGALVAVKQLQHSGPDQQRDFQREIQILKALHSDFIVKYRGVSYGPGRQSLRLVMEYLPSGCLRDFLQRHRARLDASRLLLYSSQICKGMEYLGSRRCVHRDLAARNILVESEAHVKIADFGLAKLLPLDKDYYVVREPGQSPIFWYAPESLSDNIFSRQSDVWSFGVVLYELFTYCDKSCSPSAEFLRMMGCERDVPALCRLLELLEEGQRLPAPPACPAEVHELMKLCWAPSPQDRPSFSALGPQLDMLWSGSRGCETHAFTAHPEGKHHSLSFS

BTK = BTK (Homo sapiens (Human), UniProt Q06187); experiment: IC50 against BTK
Chain of BTK (Q06187 whole entry, species assumed): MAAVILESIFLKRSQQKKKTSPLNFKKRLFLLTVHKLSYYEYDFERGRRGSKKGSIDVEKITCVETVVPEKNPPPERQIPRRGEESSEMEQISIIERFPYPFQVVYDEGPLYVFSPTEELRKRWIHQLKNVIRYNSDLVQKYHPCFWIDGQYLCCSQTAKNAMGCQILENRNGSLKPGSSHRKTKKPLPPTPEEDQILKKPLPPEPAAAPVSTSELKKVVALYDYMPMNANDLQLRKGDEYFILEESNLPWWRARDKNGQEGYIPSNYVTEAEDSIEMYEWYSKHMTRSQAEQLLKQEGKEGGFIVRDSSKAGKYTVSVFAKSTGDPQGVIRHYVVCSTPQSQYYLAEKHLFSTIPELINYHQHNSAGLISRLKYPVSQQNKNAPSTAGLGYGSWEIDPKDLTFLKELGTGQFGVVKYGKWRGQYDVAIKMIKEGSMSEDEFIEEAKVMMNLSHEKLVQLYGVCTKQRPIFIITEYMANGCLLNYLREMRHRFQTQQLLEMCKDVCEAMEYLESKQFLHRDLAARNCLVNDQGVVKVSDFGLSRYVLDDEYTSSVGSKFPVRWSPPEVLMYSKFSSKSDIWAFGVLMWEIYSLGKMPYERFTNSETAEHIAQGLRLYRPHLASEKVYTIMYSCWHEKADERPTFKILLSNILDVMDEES

Chain of TXK (P42681 whole entry, species assumed): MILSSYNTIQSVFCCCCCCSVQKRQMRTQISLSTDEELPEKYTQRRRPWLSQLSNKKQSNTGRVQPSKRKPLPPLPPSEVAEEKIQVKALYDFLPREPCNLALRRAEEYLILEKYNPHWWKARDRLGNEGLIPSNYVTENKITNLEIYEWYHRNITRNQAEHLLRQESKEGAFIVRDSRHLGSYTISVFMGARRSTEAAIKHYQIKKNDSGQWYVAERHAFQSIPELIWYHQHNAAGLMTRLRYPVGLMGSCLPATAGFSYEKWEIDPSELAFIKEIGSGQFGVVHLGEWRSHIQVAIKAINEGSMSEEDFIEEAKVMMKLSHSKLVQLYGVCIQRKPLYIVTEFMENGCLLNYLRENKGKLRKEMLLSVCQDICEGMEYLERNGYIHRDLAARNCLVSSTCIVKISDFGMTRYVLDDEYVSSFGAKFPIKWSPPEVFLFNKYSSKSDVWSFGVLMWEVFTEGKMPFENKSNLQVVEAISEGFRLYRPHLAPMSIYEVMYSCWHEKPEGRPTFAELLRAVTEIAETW
Chain of ITK (Q08881 whole entry): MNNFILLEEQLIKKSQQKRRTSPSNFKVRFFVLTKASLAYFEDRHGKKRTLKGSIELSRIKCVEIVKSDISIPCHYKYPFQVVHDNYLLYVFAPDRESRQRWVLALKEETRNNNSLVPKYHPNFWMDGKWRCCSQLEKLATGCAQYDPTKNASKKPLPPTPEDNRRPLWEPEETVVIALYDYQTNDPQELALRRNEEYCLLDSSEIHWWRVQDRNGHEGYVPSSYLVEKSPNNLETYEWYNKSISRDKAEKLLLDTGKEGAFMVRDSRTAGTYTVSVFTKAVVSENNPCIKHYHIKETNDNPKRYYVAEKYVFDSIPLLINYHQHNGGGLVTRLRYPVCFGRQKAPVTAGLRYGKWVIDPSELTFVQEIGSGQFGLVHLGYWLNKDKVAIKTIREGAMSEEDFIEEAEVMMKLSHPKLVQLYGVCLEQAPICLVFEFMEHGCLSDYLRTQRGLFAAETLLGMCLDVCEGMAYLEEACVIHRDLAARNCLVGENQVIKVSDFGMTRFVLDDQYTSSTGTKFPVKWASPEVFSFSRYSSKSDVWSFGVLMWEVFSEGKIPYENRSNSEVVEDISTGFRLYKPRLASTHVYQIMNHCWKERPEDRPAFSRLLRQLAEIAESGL

Compound | IC50 (ITK) [nM] | IC50 (TXK) [nM] | TXK/ITK (TXK) | IC50 (JAK3) [nM] | IC50 (BTK) [nM]
C=CC(=O)N1CCCN(C(=O)c2cc(Sc3cnc(NC(=O)N(C)C)s3)c(C)cc2OC)C[C@H]1C [Compound 110] | 100 to 1000 | ≥ 10000 | 46.6 | 1000 to 10000 | ≥ 10000
C=CC(=O)N1CCN(C(=O)c2cc(Sc3cnc(NC(=O)c4cnn(C)c4)s3)c(C)cc2OC)C[C@H]1CC [Compound 115] | < 10 | 10 to 100 | 9.8 | 1000 to 10000 | 100 to 1000
C=CC(=O)N1CCN(C(=O)c2cc(Sc3cnc(NC(=O)c4cnn(CCN(C)C)c4)s3)c(C)cc2OC)C[C@H]1CC [Compound 116] | < 10 | 10 to 100 | 23.3 | 1000 to 10000 | 100 to 1000
C=CC(=O)N1CCN(C(=O)c2cc(Sc3cnc(NC(=O)c4cccc(CN(C)C)c4)s3)c(C)cc2OC)C[C@H]1CC [Compound 117] | < 10 | 10 to 100 | 65.5 | 1000 to 10000 | 100 to 1000
C=CC(=O)N1CCN(C(=O)c2cc(Sc3cnc(NC(=O)C4CC4)s3)c(C)cc2C)C[C@H]1C#N [Compound 118] | ≥ 10000 | < 10 | – | < 10 | < 10
C=CC(=O)N1CCN(C(=O)c2cc(Sc3cnc(NC(C)=O)s3)c(C)cc2C)C[C@H]1C#N [Compound 119] | < 10 | < 10 | 3.2 | < 10 | 10 to 100
C=CC(=O)N1CCCN(C(=O)c2cc(Sc3cnc(NC(=O)c4ccsc4)s3)c(C)cc2OC)C[C@H]1CC [Compound 120] | < 10 | 100 to 1000 | 66.4 | 1000 to 10000 | 100 to 1000
C=CC(=O)N1CCCN(C(=O)c2cc(Sc3cnc(NC(=O)c4cnsc4)s3)c(C)cc2OC)C[C@H]1CC [Compound 121] | < 10 | 100 to 1000 | 146.1 | 1000 to 10000 | 100 to 1000
C=CC(=O)N1CCCN(C(=O)c2cc(Sc3cnc(NC(=O)c4ccsc4)s3)c(C)cc2C)C[C@H]1CC [Compound 122] | < 10 | 100 to 1000 | 118.5 | 100 to 1000 | 100 to 1000
C=CC(=O)N1CCCN(C(=O)c2cc(Sc3cnc(NC(=O)c4cnsc4)s3)c(C)cc2C)C[C@H]1CC [Compound 123] | < 10 | 100 to 1000 | 144.0 | 1000 to 10000 | 100 to 1000
C=CC(=O)N1CCN(C(=O)c2cc(Sc3cnc(NC(=O)c4cccc(CN(C)C)c4)s3)c(C)cc2OC)C[C@H]1C#N [Compound 124] | < 10 | < 10 | – | < 10 | < 10

Results, then the molecule that gave them:

IC50 (ITK) [nM] | IC50 (TXK) [nM] | TXK/ITK (TXK) | IC50 (JAK3) [nM] | IC50 (BTK) [nM] | Compound
< 10 | 10 to 100 | 13.5 | 10 to 100 | 10 to 100 | C=CC(=O)N1CCN(C(=O)c2cc(Sc3cnc(NC(=O)c4ccsc4)s3)c(C)cc2C)CC1 [Compound 109]
< 10 | 100 to 1000 | 81.1 | 1000 to 10000 | 100 to 1000 | C=CC(=O)N1CCCN(C(=O)c2cc(Sc3cnc(NC(=O)C4CC4)s3)c(C)cc2OC)C[C@H]1CC [Compound 111]
< 10 | 100 to 1000 | 118.0 | 1000 to 10000 | 100 to 1000 | C=CC(=O)N1CCCN(C(=O)c2cc(Sc3cnc(NC(=O)C4CC4)s3)c(C)cc2C)C[C@H]1CC [Compound 112]
< 10 | 10 to 100 | 12.1 | 100 to 1000 | 10 to 100 | C=CC(=O)N1CCN(C(=O)c2cc(Sc3cnc(NC(=O)c4ccsc4)s3)c(C)cc2OC)C[C@H]1CC [Compound 113]
< 10 | 10 to 100 | 30.1 | 1000 to 10000 | 100 to 1000 | C=CC(=O)N1CCN(C(=O)c2cc(Sc3cnc(NC(=O)c4cnsc4)s3)c(C)cc2OC)C[C@H]1CC [Compound 114]
